One sequence from patent US20250295732A1, “COMPOSITIONS AND METHODS FOR ACTIVATING INNATE IMMUNITY” (Zoetis Services LLC, priority 2021, published 2025) can be followed below.

The subject of assay [1] is bovine monocyte-derived macrophages. As to the kind of experiment: Reactive nitrogen species (nitrite, Griess Reagent System). In kind it is cell-based. The conditions noted are these: E. coli bioparticles 10 μg/mL 24 hours after CATH2 24 hr and 3-day rest; vs vehicle. The text has this:
(§1) Peripheral blood mononuclear cells (PBMC) were isolated from bovine blood using ficoll gradients. Bovine monocytes were isolated from PBMC using magnetic assisted cell sorting to positively select for CD14+ cells using anti-human CD14 microbeads (Miltenyi Biotec). Purified bovine blood CD14+ monocytes were differentiated into macrophages using an M2-skewing differentiation factor (recombinant bovine M-CSF) over 7 days then exposed to CATH2 or a vehicle control in the presence of bovine casein to mimic aspects of the mammary gland for 24 hr. […] Following the rest period, a subset of vehicle- and CATH2-trained monocyte-derived macrophages were assessed for epigenetic and transcriptomic changes. The remaining cells were challenged with LPS or E. coli bioparticle labeled with pH-sensitive pHrodo green dye and key parameters for macrophage activation/immune response were assessed including glycolytic activity, surface marker expression, gene expression, cytokine production, phagocytosis, reactive nitrogen species production, and miRNA profiling. Nitrite, a primary breakdown product of nitric oxide, in cell culture supernatant were quantified using Griess Reagent System (Promega) according to manufacturer's instructions.
A general note: Griess reagent forms a coloured azo dye with nitrite.

Assay [2] concerns milk macrophages (CD14+CD172a+ milk cells). The assay is described as follows: In vivo intramammary treatment and E. coli mastitis challenge model. On the set-up: species or system lactating dairy cows. Here is the method: Healthy lactating dairy cows were treated according to table 1 on day −2 of study, at the AM milking, in the front quarters designated by the allotment, one quarter was treated with CATH2 and the neighboring quarter within the same cow was given vehicle control by intramammary infusion. Following administration of CATH2 and vehicle doses, quarters which received CATH2 or vehicle received an intramammary infusion of live Escherichia coli. The E. coli strain used causes clinical mastitis. Milk samples from CATH2-treated and vehicle control quarters were collected following E. coli challenge for cell isolation to assess macrophage surface marker expression.
Expression of surface markers on bovine monocyte-derived macrophages and cells isolated from bovine milk were assessed using flow cytometry. In brief, for monocyte-derived macrophages, cells were lifted with Accutase, washed, and then incubated with fluorescently tagged antibodies against bovine surface markers of interest (CD163, CD14, CD80, MHC II) and a live/dead stain. In brief, for cells in bovine milk, milk was diluted in MACS Running Buffer, spun, fat layer and supernatant were discarded, and milk cell pellets were preserved in Streck. Preserved milk cells were washed again and then incubated with fluorescently tagged antibodies against bovine surface markers of interest (CD163, CD14, CD80, MHC II, CD172a) and a live/dead stain. Following incubation with live/dead stain and antibodies, labeled cells were washed, and then analyzed on a ZE5 CellAnalyzer (BioRad) for monocyte-derived macrophages and a FACS Canto II (BD) for milk cells. Flow cytometry data were analyzed using FlowJo analysis software (Becton Dickson) to assess relative levels of expression via mean fluorescent intensity for each marker of interest within the live CD14+ cell population (for monocyte-derived macrophages) or within the live CD14+CD172a+ cell population (for milk cells).

Assay [3] has as its system bovine monocyte-derived macrophages. As to the kind of experiment: Flow cytometric surface marker expression after LPS. The conditions noted are these: 24 hr following LPS after CATH2 removal and 3-day rest; vs vehicle. In kind it is cell-based.
Description: as §1, with “profiling.” for “profiling. Nitrite, a primary breakdown product of nitric oxide, in cell culture supernatant were quantified using Griess Reagent System (Promega) according to manufacturer's instructions.”
Expression of surface markers on bovine monocyte-derived macrophages and cells isolated from bovine milk were assessed using flow cytometry. […] Following incubation with live/dead stain and antibodies, labeled cells were washed, and then analyzed on a ZE5 CellAnalyzer (BioRad) for monocyte-derived macrophages and a FACS Canto II (BD) for milk cells. […]
(In general: Flow cytometry measures light scatter and fluorescence of single cells or particles in a stream.)

Assay [4] has the same test system. As to the kind of experiment: Phagocytosis of pHrodo green-labeled E. coli bioparticle (IncuCyte). The following applies: <4 hr from challenge with E. coli bioparticles (10 μg/mL); after CATH2 24 hr and 3-day rest; vs vehicle. In kind it is cell-based.
Description: as §1, with “In brief, E. coli bioparticle labeled with pHrodo-green pH sensitive dye (Invitrogen) were added to monocyte-derived macrophages and phase and green fluorescence was captured over time using the S3 IncuCyte® Live-Cell Analysis System (Essen Bioscience) over” for “Nitrite,”, “period” for “primary breakdown product”, “24-hr. […]” for “nitric oxide, in cell culture supernatant were quantified using Griess Reagent System (Promega) according to manufacturer's instructions.”

Assay [5] has the same test system. The assay is described as follows: H3 histone modification quantification (ELISA). In kind it is cell-based. The conditions noted are these: vs vehicle.
Description: as §1, with “profiling.” for “profiling. Nitrite, a primary breakdown product of nitric oxide, in cell culture supernatant were quantified using Griess Reagent System (Promega) according to manufacturer's instructions.”
Histones were isolated from bovine monocyte-derived macrophages using commercially available histone extraction kits (Epigentek) according to the manufacturer's instructions and stored at −80° C. until histone quantification assays could be performed. […]
Background: An ELISA detects its analyte on a solid surface through an enzyme-linked reagent.

Setting [6] is: intramammary CATH2 prior to E. coli challenge.

With “RFGRFLRKIRRFRPKVTITIQGSARFG [CATH2, cathelicidin 2 peptide]”, the “RNS (nitrite) response to E. coli bioparticle challenge” value in assay [1] was “enhanced production of nitrogen oxide species/reactive nitrogen species (RNS) responses”. In addition, in assay [2] (setting [6]), the “Bacterial counts in milk” value was “reduced bacterial counts in milk” and the “Milk somatic cell counts” value is on record as “lower milk somatic cell counts”. The “Milk macrophage surface marker expression (CD14, CD80, MHC II, CD163)” value in assay [2] (intramammary CATH2 prior to challenge, 12 hr following live E. coli intramammary challenge, vs vehicle quarter) was “enhanced expression of the same surface markers”. In addition, the “Surface marker expression (CD14, CD80, MHC II, CD163)” value in assay [3] is “enhanced expression of multiple surface markers”. Moreover, the “Phagocytosis of E. coli bioparticles” value in assay [4] is recorded as “enhanced phagocytosis of E. coli bioparticles”. In addition, in assay [5] (after CATH2 exposure and rest period, pre-LPS), the “H3 histone modifications (incl. H3K27ac, H3K4me1)” value is on record as “increased levels of various H3 histone modifications”. Also, the “H3 histone modifications following LPS challenge” value in assay [5] (after CATH2 exposure, rest, LPS 1 μg/mL 24 hr) is “some modifications are retained to a lesser extent”.
